Experimental data as given in patent publication US20080118580A1, “ADHESION INHIBITION OF FUNGI” (priority 2001, published 2008).

Tests used:
[1] = system: Candida albicans strain SC5314; assay: Test for inhibition of the formation of hyphae; format: cell-based; details: for hyphae formation (in words): at the concentrations used
Procedure: An initial culture of the Candida albicans strain SC5314 was grown overnight in minimal medium (0.67% yeast nitrogen base w/o amino acids (Difco), 2% glucose) up to an optical density of 1 at 600 nm, and washed once in sterile double-distilled H2O. For the induction of hyphae, 100 μl to 900 μl of YPS (1% yeast extract, 2% peptone, 10% horse serum (Sigma)) were added, and incubated at 37° C. with shaking. To test the inhibitory action of different substances, farnesol (50 μl/l), propolis extract (200 ppm in ethanolic solution, Sigma, P 5182, origin: Alsace, France) or fucoidan (2 mg/ml, Sigma, F 5631) were added to the medium. A culture of 100 μl of cell suspension in 900 μl of YPD medium (1% yeast extract, 2% peptone, 2% glucose) which was incubated at 30° C. with shaking was used as the control. To quantify the formation of hyphae, 2×100 cells were counted under the microscope (Zeiss Axioscope) every 20 min. and the germ tubes formed calculated as a percentage of the total cells.

C. albicans = assay: Growth test; format: cell-based, Candida albicans; details: for Growth rate: YPD medium, 30° C., over 10 hours, reference 0.55
Procedure: The growth rates were measured over 10 hours in the YPD medium already described above. The optical density was initially set at 0.1 OD and the cultures were incubated at 30° C.
Here it was assumed that an optical density of 1 measured at wavelength 600 nm corresponds to about 10^7 cells.

[2] = system: C. albicans culture (strain SC5314); assay: Adhesion test on textiles (tetrazolium blue staining, relative light reflection); format: cell-based, Candida albicans
Procedure: For assessment of the inhibitory action of different substances on the adhesion of fungi, a procedure with which this adhesion to textiles can be determined semi-quantitatively was developed.
A 50 ml C. albicans culture (strain SC5314) was grown overnight with shaking in a conical flask at 30° C. up to an optical density (OD) of ca. 1 (measured at 600 nm with a spectrophotometer). After washing once in water, the cells were again incubated for one hour at 30° C. with shaking. Next, 2.5 ml of the culture were diluted in 22.5 ml of YPD medium (1% yeast extract, 2% peptone, 2% glucose) or YPS medium (1% yeast extract, 2% peptone, 10% horse serum). The YPD cultures were incubated with shaking for 2 hours at 30° C., and the YPS cultures for 2 hours at 37° C. for the induction of hyphae.
As desired, test substance was added to the media. In addition a 2.5×2.5 cm piece of test fabric (polyester microfibers) was added to the media. After incubation, the textile pieces were washed three times with wash liquor (Perwoll powder, 12 ml/l water) and twice with water (5 min. with shaking each time), then transferred to a 6-well plate and covered with a layer of YPD-tetrazolium blue agar (1% yeast extract, 2% peptone, 2% glucose, 1.5% agar, 0.5 mg/ml tetrazolium blue chloride).
The depth of the blue coloration due to enzymatic conversion of the dyestuff tetrazolium blue chloride (3,3′-[3,3′-dimethoxy(1,1′-biphenyl)-4,4′-diyl]-bis-[2,5-diphenyl-2H-tetrazolium] dichloride (Sigma, T4375) by cellular dehydrogenases of adhered C. albicans served as a measure for the number of adhered Candida cells and was measured by measurement of the relative light reflection (measurement geometry d/8°) with a differential calorimeter (Dr. Lange Micro Color). The instrument was calibrated in accordance with the manufacturer's instructions. For this, the textile patches were dissolved out from the agar and subjected to the measurement with the differential calorimeter. In accordance with DIN 5033, the differential calorimeter determines the diffuse reflection of the samples at an angle of 8°.

Candida albicans = assay: Wash tests, contamination with Candida albicans; format: cell-based; details: addition of farnesol to detergent, versus same detergent without
Procedure: The wash tests were performed in standard domestic washing machines (Miele W 918 Novotronic), which had previously been disinfected, in the delicates program at 30° C. The fungal cells were applied onto textile supports (polyamid, 2.5×2.5 cm) (2×10^5 cells/microbe support) and washed together with 3.5 kg of disinfected fill laundry with the detergent formulae. As the control, the wash was performed with the same detergent without farnesol. After the washing and drying in the air, both the residual microbial burden and also the microbial transfer to other, sterile textiles were determined.
The experiments were performed with the detergents A (addition of farnesol) and B (reference).
75 ml of the liquid detergent is added; this corresponds to a farnesol concentration of 20 ppm in the wash liquor.

[3] = description, no concentration given

CC=Cc1ccc(OC)cc1 [Anethole, 1-methoxy-4-(1-propenyl)benzene]
Effective inhibitory concentration (hyphae formation inhibiting concentration) [1]: 0.10% wt. %

CCO [Ethanol]
Growth rate (C. albicans; 2 wt. %): 0.5 h⁻¹

CC(C)=CCCC(C)=CCCC(C)=CCO [Farnesol, farnesol]
Number of hyphal cells formed ([1]; YPS + farnesol 0.005 wt. %, t 0 min, 37° C., YPS alone 0): 0 | Number of hyphal cells formed ([1]; YPS + farnesol 0.005 wt. %, t 20 min, YPS alone 0): 0 | Number of hyphal cells formed ([1]; YPS + farnesol 0.005 wt. %, t 40 min, YPS alone 15): 0 | Number of hyphal cells formed ([1]; YPS + farnesol 0.005 wt. %, t 60 min, YPS alone 75): 3 | hyphae formation (in words) [1]: essentially complete prevention | Growth rate (C. albicans; 0.0025 wt. %): 0.51 h⁻¹ | Relative light reflection ([2]; 0.0025 wt. % test substance, polyester microfiber fabric, higher reflection = fewer adhered cells (YPD reference 48.7, YPS 44.7)): 49.3 | adhesion of fungi to textiles (in words) ([2]; concentrations of Table 1): reduction in the adhesion of fungi to textiles down to almost complete inhibition of the adhesion | adhesion of fungal cells to surfaces (in words) ([2]; in solutions which contain the substance): scarcely or not at all | cross contamination of other laundry items (in words) (Candida albicans): completely prevented | residual microbial burden (in words) (Candida albicans): drastically reduced

CC(C)=CCC/C(C)=C/CO [Geraniol, geraniol]
Effective inhibitory concentration (hyphae formation inhibiting concentration) [1]: 0.01% wt. %

O=C(O)/C=C/c1ccccc1 [Trans-cinnamic acid, trans-cinnamic acid]
Effective inhibitory concentration (hyphae formation inhibiting concentration) [1]: 0.01% wt. %

fucoidan
Number of hyphal cells formed ([1]; YPS + fucoidan 0.2 wt. %, t 0 min, YPS alone 0): 0 | Number of hyphal cells formed ([1]; YPS + fucoidan 0.2 wt. %, t 20 min, YPS alone 0): 0 | Number of hyphal cells formed ([1]; YPS + fucoidan 0.2 wt. %, t 40 min, YPS alone 15): 4 | Number of hyphal cells formed ([1]; YPS + fucoidan 0.2 wt. %, t 60 min, YPS alone 75): 25 | hyphae formation (in words) [1]: marked reduction | formation of hyphae by Candida albicans (in words) [1, 3]: significantly reduced | cell growth (in words) (C. albicans; [3]): not affected
